In patent US20260184675A1, “CHIRAL ISOMERIC SULFITE COMPOUND AND APPLICATION THEREOF” (Chengdu Hanova BioSciences Co., Ltd, priority 2024, published 2026):

Key:
eggs of Thrips = assay: Effect on hatching of eggs of Thrips, leaf disc method; type: in vivo; details: 100 ppm; for Hatching rate (%): 5 days after insecticide delivery
Summary of the method: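 Thrip egg hatching was tested by the leaf disc method on Vicia faba discs 2.0 cm across, placed over wetted filter paper. Egg numbers on each disc were counted under a microscope before treatment. Discs were then dipped for 10 seconds in clean water or a compound solution at 100 ppm. They were kept moist under normal conditions, and hatching was surveyed five days after insecticide delivery.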

[1] = test system: eggs of Tetranychus urticae; assay: Effect on hatching of eggs of Tetranychus urticae, leaf disc method; type: in vivo; details: 5 ppm; for Hatching rate (%): 5 days after insecticide delivery
Summary of the method: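 Twenty adult female Tetranychus urticae mites were placed on 2.0 cm Vicia faba leaf discs over wetted filter paper in lidded dishes kept moist, and removed within 36 hours. Eggs on each disc were counted under a microscope. The egg-bearing discs were dipped for 10 seconds in a compound solution at 5 ppm or in clear water, then kept moist, and hatching was checked five days after treatment.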

eggs of Panonychus citri = assay: Effect on hatching of eggs of Panonychus citri, leaf disc method; type: in vivo; details: 1 ppm; for Hatching rate (%), Replicate 1 / Hatching rate (%), Replicate 2 / Hatching rate (%), Replicate 3 / Number of hatched larvae 5 days after insecticide delivery, Replicate 1 / Number of hatched larvae 5 days after insecticide delivery, Replicate 2 / Number of hatched larvae 5 days after insecticide delivery, Replicate 3: Panonychus citri eggs; for Hatching rate (%), Replicate 1 / Hatching rate (%), Replicate 2 / Hatching rate (%), Replicate 3: 5 days after delivery; for Number of hatched larvae 5 days after insecticide delivery, Replicate 1 / Number of hatched larvae 5 days after insecticide delivery, Replicate 2 / Number of hatched larvae 5 days after insecticide delivery, Replicate 3: leaf disc
[2] = test system: eggs of Spodoptera litura; assay: Effect on hatching of eggs of Spodoptera litura, egg piece soaking; type: in vivo; details: 500 ppm; for Hatching rate (%), Replicate 1 / Hatching rate (%), Replicate 2 / Hatching rate (%), Replicate 3 / Number of unhatched larvae 4 days after insecticide delivery, Replicate 1 / Number of unhatched larvae 4 days after insecticide delivery, Replicate 2 / Number of unhatched larvae 4 days after insecticide delivery, Replicate 3: Spodoptera litura eggs; for Hatching rate (%), Replicate 1 / Hatching rate (%), Replicate 2 / Hatching rate (%), Replicate 3: 4 days after delivery; for Number of unhatched larvae 4 days after insecticide delivery, Replicate 1 / Number of unhatched larvae 4 days after insecticide delivery, Replicate 2 / Number of unhatched larvae 4 days after insecticide delivery, Replicate 3: soaked 10 minutes
Summary of the method: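 Egg pieces of about 60 eggs were soaked 10 min in test agent at 500 ppm, blotted, then held singly at 24±1 °C, 80±10% RH, 12:12 L:D. Hatched and unhatched eggs were counted on day 4 to give hatching rate and control effect; 3 replicates.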

Magnaporthe grisea = type: cell-based; details: 100 ppm; for Average antifungal rate (%) / Antifungal rate of Magnaporthe grisea (%), Replicate 1 / Antifungal rate of Magnaporthe grisea (%), Replicate 2 / Antifungal rate of Magnaporthe grisea (%), Replicate 3: 96-well plate; for Average antifungal rate (%): average of 3 replicates

Row | Compound | Hatching rate (%) (eggs of Thrips; Replicate 1) | Hatching rate (%) (eggs of Thrips; Replicate 2) | Hatching rate (%) (eggs of Thrips; Replicate 3) | Number of hatched larvae 5 days after insecticide delivery (eggs of Thrips; Replicate 1) | Number of hatched larvae 5 days after insecticide delivery (eggs of Thrips; Replicate 2) | Number of hatched larvae 5 days after insecticide delivery (eggs of Thrips; Replicate 3) | Hatching rate (%) ([1]; Replicate 1) | Hatching rate (%) ([1]; Replicate 2) | Number of hatched larvae 5 days after insecticide delivery ([1]; Replicate 1) | Number of hatched larvae 5 days after insecticide delivery ([1]; Replicate 2) | Hatching rate (%), Replicate 1 (eggs of Panonychus citri) | Hatching rate (%), Replicate 2 (eggs of Panonychus citri) | Hatching rate (%), Replicate 3 (eggs of Panonychus citri) | Number of hatched larvae 5 days after insecticide delivery, Replicate 1 (eggs of Panonychus citri) | Number of hatched larvae 5 days after insecticide delivery, Replicate 2 (eggs of Panonychus citri) | Number of hatched larvae 5 days after insecticide delivery, Replicate 3 (eggs of Panonychus citri) | Hatching rate (%), Replicate 1 [2] | Hatching rate (%), Replicate 2 [2] | Hatching rate (%), Replicate 3 [2] | Number of unhatched larvae 4 days after insecticide delivery, Replicate 1 [2] | also measured
1 | CC(C)(COc1ccc(Cl)cc1Cl)OS(=O)OCCF (centres unmarked) [Compound S-10] | 0.00% | 0.00% | 0.00% | 0 | 0 | 0 | 0.00% | 0.00% | 0 | 0 | 0.00% | 0.00% | 0.00% | 0 | 0 | 0 | 21.43% | 22.86% | 24.19% | 44 | inhibitory activity on the hatching of eggs of Thrips (in words) (eggs of Thrips): strong inhibitory activities; inhibitory activity on the hatching of eggs of Tetranychus urticae (in words) [1]: strong inhibitory activities; inhibitory effect on the hatching of eggs of Panonychus citri (in words) (eggs of Panonychus citri): good inhibitory effects; inhibitory activity on the hatching of eggs of Spodoptera litura (in words) [2]: good inhibitory activities; Number of unhatched larvae 4 days after insecticide delivery, Replicate 2 [2]: 54; Number of unhatched larvae 4 days after insecticide delivery, Replicate 3 [2]: 47; inhibitory rate against Magnaporthe grisea (in words) (Magnaporthe grisea): strong inhibitory rate; Average antifungal rate (%) (Magnaporthe grisea): 98.62%; Antifungal rate of Magnaporthe grisea (%), Replicate 1 (Magnaporthe grisea): 98.63%; Antifungal rate of Magnaporthe grisea (%), Replicate 2 (Magnaporthe grisea): 99.72%; Antifungal rate of Magnaporthe grisea (%), Replicate 3 (Magnaporthe grisea): 97.51%
2 | CC(C)(COS(=O)OCCF)Oc1ccc(Cl)cc1Cl (centres unmarked) [R-10′] | 13.93% | 15.05% | 13.97% | 17 | 14 | 19 | 17.72% | 16.67% | 14 | 16 | 10.29% | 10.31% | 9.62% | 14 | 10 | 10 | 61.82% | 62.07% | 63.64% | 21 | Number of unhatched larvae 4 days after insecticide delivery, Replicate 2 [2]: 22; Number of unhatched larvae 4 days after insecticide delivery, Replicate 3 [2]: 24; inhibitory rate against Magnaporthe grisea (in words) (Magnaporthe grisea): strong inhibitory rate; Average antifungal rate (%) (Magnaporthe grisea): 82.60%; Antifungal rate of Magnaporthe grisea (%), Replicate 1 (Magnaporthe grisea): 82.71%; Antifungal rate of Magnaporthe grisea (%), Replicate 2 (Magnaporthe grisea): 81.95%; Antifungal rate of Magnaporthe grisea (%), Replicate 3 (Magnaporthe grisea): 83.14%
3 | CC(C)(COS(=O)OCCF)Oc1ccc(Cl)cc1Cl (centres unmarked) [S-10′] | 0.00% | 0.00% | 0.00% | 0 | 0 | 0 | 0.00% | 0.00% | 0 | 0 | 0.00% | 0.00% | 0.00% | 0 | 0 | 0 | 22.03% | 21.88% | 21.67% | 46 | inhibitory activity on the hatching of eggs of Thrips (in words) (eggs of Thrips): strong inhibitory activities; inhibitory activity on the hatching of eggs of Tetranychus urticae (in words) [1]: strong inhibitory activities; inhibitory effect on the hatching of eggs of Panonychus citri (in words) (eggs of Panonychus citri): good inhibitory effects; inhibitory activity on the hatching of eggs of Spodoptera litura (in words) [2]: good inhibitory activities; Number of unhatched larvae 4 days after insecticide delivery, Replicate 2 [2]: 50; Number of unhatched larvae 4 days after insecticide delivery, Replicate 3 [2]: 47; inhibitory rate against Magnaporthe grisea (in words) (Magnaporthe grisea): strong inhibitory rate; Average antifungal rate (%) (Magnaporthe grisea): 99.31%; Antifungal rate of Magnaporthe grisea (%), Replicate 1 (Magnaporthe grisea): 100.03%; Antifungal rate of Magnaporthe grisea (%), Replicate 2 (Magnaporthe grisea): 99.64%; Antifungal rate of Magnaporthe grisea (%), Replicate 3 (Magnaporthe grisea): 98.27%
